Measurements reported in patent publication US20070265288A1 (priority 2004, published 2007).
Where two headings read alike, the source gives them in different places.

What was measured:
[1] = Forced degradation (stress) study of imatinib mesylate alpha form; assay type: physicochemical
[2] = Hygroscopicity of the crystal form according to the invention; assay type: physicochemical
[3] = alpha form obtained by process of WO 99/03854; cited from earlier work
[4] = 60° C. for 48 hours, listed as RD/IMT-4/31
[5] = 60° C. for 48 hours, listed as RD/IMT-4/34
[6] = 105° C. for 12 hours, listed as RD/IMT-4/31
[7] = 105° C. for 12 hours, listed as RD/IMT-4/34
[8] = As such (i.e. no stress condition)
[9] = As such (i.e. no stress condition), listed as RD/IMT-4/31
[10] = As such (i.e. no stress condition), listed as RD/IMT-4/34
[11] = UV −45° C. 75 RH for 12 hours, listed as RD/IMT-4/31
[12] = UV −45° C. 75 RH for 12 hours, listed as RD/IMT-4/34

For `CS(=O)(=O)O.Cc1ccc(NC(=O)c2ccc(CN3CCN(C)CC3)cc2)cc1Nc1nccc(-c2cccnc2)n1` [imatinib mesylate], the “HPLC single maximum impurity content” value (Initial) was 0.23 wt %, the “HPLC total impurity content” value (Initial) was 0.50 wt % and the Water content (Initial) was 0.39 wt %. For the same compound, the “HPLC single maximum impurity content” value (after 6 months) was 0.11 wt %, the “HPLC total impurity content” value (after 6 months) was 0.33 wt % and the Water content (after 6 months) was 0.61 wt %. For the same compound, the “HPLC single maximum impurity content” value (after 12 months) was 0.15 wt %, the “HPLC total impurity content” value (after 12 months) was 0.41 wt % and the Water content (after 12 months) was 0.58 wt %. The stability on storage (storage at ambient temperature) was “stable chemically and polymorphically”, the DSC ([1]; 60° C. for 48 hours) was “Complies” and the XRPD ([1]; 60° C. for 48 hours) was “Complies”. For the same compound, the DESCRIPTION [1, 4] was “Pale yellow”, the Purity [1, 4] was 99.44% and the “Single Max. impurity” value [1, 4] was 0.20%. For the same compound, the DESCRIPTION [1, 5] was “Cream coloured”, the Purity [1, 5] was 99.17% and the “Single Max. impurity” value [1, 5] was 0.30%. The DSC ([1]; 105° C. for 12 hours) was “Complies”, the XRPD ([1]; 105° C. for 12 hours) was “Complies” and the DESCRIPTION [1, 6] was “Pale yellow”. For the same compound, the Purity [1, 6] was 99.49%, the “Single Max. impurity” value [1, 6] was 0.17% and the DESCRIPTION [1, 7] was “Cream coloured”. The Purity [1, 7] was 99.18%, the “Single Max. impurity” value [1, 7] was 0.32% and the DSC [1, 8] was “Complies”. For the same compound, the XRPD [1, 8] was “Complies”, the DESCRIPTION [1, 9] was “Pale yellow” and the Purity [1, 9] was 99.45%. For the same compound, the “Single Max. impurity” value [1, 9] was 0.18%, the DESCRIPTION [1, 10] was “Cream coloured” and the Purity [1, 10] was 99.26%. For the same compound, the “Single Max. impurity” value [1, 10] was 0.33%, the DSC ([1]; UV −45° C. 75 RH for 12 hours) was “Complies” and the XRPD ([1]; UV −45° C. 75 RH for 12 hours) was “Complies”. For the same compound, the DESCRIPTION [1, 11] was “Pale yellow”, the Purity [1, 11] was 99.38% and the “Single Max. impurity” value [1, 11] was 0.19%. For the same compound, the DESCRIPTION [1, 12] was “Cream coloured”, the Purity [1, 12] was 99.18% and the “Single Max. impurity” value [1, 12] was 0.34%. For the same compound, the “polymorphic stability by DSC and XRPD evaluation” value ([1]; before and after stress study) was “polymorphically stable”, the “polymorphic identity under stress conditions” value ([1]; stress conditions such as milling or heating) was “retain the polymorphic identity” and the “level of impurities before and after stability study” value ([1]; stress: 60° C. 48 hours, 105° C. 12 hours, UV 45° C. at 75% RH 12 hours) was “no increase in the level of impurities”. For the same compound, the hygroscopicity [2] was “non-hygroscopic”.

For `CS(=O)(=O)O.Cc1ccc(NC(=O)c2ccc(CN3CCN(C)CC3)cc2)cc1Nc1nccc(-c2cccnc2)n1` [alpha-crystalline form], the hygroscopicity [3] is given as “highly hygroscopic” and the stability [3] is given as “not stable”.
